Experimental data as given in US4956171A, “Transdermal drug delivery using a dual permeation enhancer and method of performing the same” (Paco Pharmaceutical Services, Inc., priority 1989, dated 1990).
Where a name gives a salt, the structure may show the parent alone. Read-outs that look alike come from different tables or passages of the source.

Key:
[1] = In vitro flux of drug from saturated test solutions through human cadaver skin into an infinite sink, Franz diffusion cell; format: in vitro ADME
Protocol: For the evaluation of the degree of permeation enhancement, saturated test solutions of buprenorphine HCl in methyl laurate and/or sucrose cocoate were directly applied onto the epidermis side of human cadaver skin loaded between donor and receptor compartments of a standard Franz diffusion cell. The cell was kept at 35° C. during the diffusion study. […] The sucrose cocoate used for the test is commercially available in a 48 wt. % aqueous solution under the trade name Crodesta® SL-40, through Croda, Inc.

[2] = on over dosage; cited from earlier work
[3] = In vitro release rate from the reservoir-type system into an infinite sink; conditions: Example 1 reservoir-type system
[4] = relative to morphine; background statement; cited from earlier work
[5] = optimized delivery system, constant rate over extended time periods
[6] = cited from earlier work
[7] = Table 4, saturated in 48 wt. % sucrose cocoate aqueous solution
[8] = Table 4, saturated in 100 wt. % methyl laurate
[9] = Table 4, saturated in methyl laurate : 48 wt. % sucrose cocoate aqueous solution 3:7
[10] = Example 1 reservoir-type system, 35° C.

Structure (SMILES): C[C@]12CC[C@@H]3c4ccc(O)cc4CC[C@H]3[C@@H]1CC[C@@H]2O [Estradiol]
- Flux, Solution B [1, 7]: 7.4 μg/cm^2 /day
- Flux, Solution A [1, 8]: 4.3 μg/cm^2 /day

Structure (SMILES): COC(=O)C1=C(C)NC(C)=C(C(=O)OC)C1c1ccccc1[N+](=O)[O-] [Nifedipine]
- Flux, Solution B [1, 7]: 14 μg/cm^2 /day
- Flux, Solution A [1, 8]: 15 μg/cm^2 /day
- Flux, Solution A:B(3:7) [1, 9]: 23 μg/cm^2 /day

Structure (SMILES): CC(C)Cc1ccc(C(C)C(=O)O)cc1 (stereo not drawn) [Ibuprofen]
- Flux, Solution B [1, 7]: 547 μg/cm^2 /day
- Flux, Solution A [1, 8]: 586 μg/cm^2 /day
- Flux, Solution A:B(3:7) [1, 9]: 1897 μg/cm^2 /day

Structure (SMILES): C[C@]12C=CC(=O)C=C1CC[C@@H]1[C@@H]2[C@@H](O)C[C@@]2(C)[C@H]1CC[C@]2(O)C(=O)CO [Prednisolone]
- Flux, Solution B [1, 7]: 8 μg/cm^2 /day
- Flux, Solution A [1, 8]: 51 μg/cm^2 /day
- Flux, Solution A:B(3:7) [1, 9]: 188 μg/cm^2 /day

Structure (SMILES): CO[C@]12CC[C@@]3(C[C@@H]1[C@](C)(O)C(C)(C)C)[C@H]1Cc4ccc(O)c5c4[C@@]3(CCN1CC1CC1)[C@H]2O5 [buprenorphine]
- side effects [2]: severe side effects, particularly respiratory depression
- release through the microporous membrane ([3]; infinite sink): rapid release
- loaded amount depleted by release into an infinite sink ([3]; within the first 12 hours): more than 70 wt. %
- analgesic activity, times more potent than morphine [4]: ~30 times
- skin irritation [5]: without uncomfortable skin irritation
- steady state buprenorphine flux (Example 1 reservoir-type system, 3 wt. % buprenorphine HCl, 35° C.): about 5 μg/cm^2 /hr.
- period over which flux stayed at a constant rate [10]: 72 h
- time to steady state flux [10]: an hour
- period over which steady state flux remained substantially constant (Example 3 laminated matrix-type system): 72 h
- steady state buprenorphine flux (Example 3 laminated matrix-type system, 5.5 wt. % buprenorphine HCl): about 3.5 μg/cm^2 /hr.
- in vitro human cadaver skin delivery rate (dual permeation enhancer sucrose cocoate + methyl laurate, full range): 1-10 μg/cm^2 /hr.
- in vitro human cadaver skin delivery rate, preferable range (dual permeation enhancer sucrose cocoate + methyl laurate, preferably): 2-6 μg/cm^2 /hr.
- liver and intestinal metabolism ([6]; background statement): extensive liver and intestinal metabolism
- bioavailability ([6]; due to extensive liver and intestinal metabolism): poor bioavailability

Structure (SMILES): CO[C@]12CC[C@@]3(C[C@@H]1[C@](C)(O)C(C)(C)C)[C@H]1Cc4ccc(O)c5c4[C@@]3(CCN1CC1CC1)[C@H]2O5 [buprenorphine HCl]
- skin flux, Solution B ([1]; Table 3, saturated in 48 wt. % sucrose cocoate aqueous solution, 35° C.): 100 μg/cm^2 /day
- skin flux, Solution A ([1]; Table 3, saturated in 100 wt. % methyl laurate, 35° C.): 8 μg/cm^2 /day
- skin flux, Solution A:B(1:9) ([1]; Table 3, saturated in methyl laurate : 48 wt. % sucrose cocoate aqueous solution 1:9, 35° C.): 226 μg/cm^2 /day
- amount delivered (Example 1 reservoir-type system, during the 72 hour period): 360 μg/cm^2
- loaded amount transdermally delivered (Example 1 reservoir-type system, over 72 hours, initial load about 1800 μg/cm^2): about 20 wt. %

Structure (SMILES): O=C(O)Cc1ccccc1Nc1c(Cl)cccc1Cl [Dichlofenac Sodium]
- Flux, Solution A [1]: 14 μg/cm^2 /day
- Flux, Solution A:B(3:7) [1]: 215 μg/cm^2 /day
- Flux, Solution B [1]: 146 μg/cm^2 /day
